Assay results from ChEMBL document CHEMBL1201862, “PubChem BioAssay data set” (2004).
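Grown in 96-well plates, cells were treated for 48 hours with each compound at five concentrations. Insufficient inhibition: endpoint recorded as highest concentration tested. The concentration for 50% growth inhibition is given as GI50.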 Active and inactive are the calls of the source. No stated cut-off is given here; in the data, active = GI50 up to about 1.1 µM and inactive = higher.

What was measured:
Assay in all cases: inhibition of tumour cell growth, NCI panel, 48 h
Malme-3M = system: Malme-3M
OVCAR-8 = system: OVCAR-8
M14 = system: M14
HCC 2998 = system: HCC 2998
U-251 = system: U-251
SN12C = system: SN12C
SK-MEL-28 = system: SK-MEL-28
A549 = system: A549
K562 = system: K562
SNB-19 = system: SNB-19
UO-31 = system: UO-31
SF-268 = system: SF-268
IGROV-1 = system: IGROV-1
RXF 393 = system: RXF 393
CCRF-CEM = system: CCRF-CEM
KM12 = system: KM12
NCI-H522 = system: NCI-H522

Row | SMILES | GI50 (Malme-3M) | GI50 (OVCAR-8) | GI50 (M14) | GI50 (HCC 2998) | GI50 (U-251) | GI50 (SN12C) | GI50 (SK-MEL-28) | GI50 (A549) | GI50 (K562) | GI50 (SNB-19) | GI50 (UO-31) | GI50 (SF-268) | GI50 (IGROV-1) | GI50 (RXF 393) | GI50 (CCRF-CEM) | GI50 (KM12) | GI50 (NCI-H522)
1 | N#Cc1c2c(c(Cl)n3c1nc1ccccc13)CCCC2 | 13.2 µM (inactive) | 2.57 µM (inactive) | 3.45 µM (inactive) | 16.4 µM (inactive) | 3.65 µM (inactive) | 2.09 µM (inactive) | 1.99 µM (inactive) | 4.25 µM (inactive) | 2.5 µM (inactive) | 4.69 µM (inactive) | 3.06 µM (inactive) | 2.58 µM (inactive) | 2.69 µM (inactive) | 0.272 µM (active) | – | – | –
2 | CCOc1ccccc1NC(=O)CC1SC(Nc2ccc([N+](=O)[O-])cc2)=NC1=O (centres undefined) | 22.5 µM (inactive) | 21.5 µM (inactive) | 23.3 µM (inactive) | 16.4 µM (inactive) | 14.3 µM (inactive) | 20.4 µM (inactive) | 25.3 µM (inactive) | 18.5 µM (inactive) | – | 29.3 µM (inactive) | 17.2 µM (inactive) | 29.9 µM (inactive) | 23.2 µM (inactive) | 18.1 µM (inactive) | 17.2 µM (inactive) | 18.7 µM (inactive) | –
3 | COC(=O)N1C=CC2=C(C)C3Nc4ccccc4C3C(C)=C2C1 (centres undefined) | 3.03 µM (inactive) | 0.682 µM (active) | 1.64 µM (inactive) | 1.95 µM (inactive) | 3.1 µM (inactive) | – | 7.29 µM (inactive) | 1.69 µM (inactive) | 2.09 µM (inactive) | 2.97 µM (inactive) | 1.29 µM (inactive) | 1.94 µM (inactive) | 1.47 µM (inactive) | – | 0.726 µM (active) | – | 1.49 µM (inactive)
4 | CN(C)CCNC(=O)c1ccc(Cl)c2c(Nc3ccc(S(=O)(=O)N=C(N)N)cc3)c3ccccc3nc12 | – | 2.24 µM (inactive) | 7.38 µM (inactive) | 8.17 µM (inactive) | 3.29 µM (inactive) | 3.15 µM (inactive) | 11.2 µM (inactive) | 3.33 µM (inactive) | 2.77 µM (inactive) | 1.85 µM (inactive) | 0.349 µM (active) | 3.48 µM (inactive) | 3.55 µM (inactive) | 4.66 µM (inactive) | 1.69 µM (inactive) | 4.21 µM (inactive) | 0.603 µM (active)
5 | CC1(C)C(=O)N(CCCCCCN2C(=O)C(C)(C)c3ccccc32)c2ccccc21 | 25.9 µM (inactive) | 51.3 µM (inactive) | 24.6 µM (inactive) | 71.6 µM (inactive) | 36.6 µM (inactive) | 59.7 µM (inactive) | 47.2 µM (inactive) | 43.4 µM (inactive) | 22.6 µM (inactive) | 68.5 µM (inactive) | 31.2 µM (inactive) | 60.8 µM (inactive) | 88.3 µM (inactive) | – | 22.4 µM (inactive) | 37.9 µM (inactive) | –
6 | CCOC(=O)C(=O)Nc1ccccc1C(C)C | > 100 µM (inactive) | > 100 µM (inactive) | > 100 µM (inactive) | > 100 µM (inactive) | > 100 µM (inactive) | > 100 µM (inactive) | > 100 µM (inactive) | > 100 µM (inactive) | > 100 µM (inactive) | > 100 µM (inactive) | > 100 µM (inactive) | > 100 µM (inactive) | > 100 µM (inactive) | – | > 100 µM (inactive) | > 100 µM (inactive) | > 100 µM (inactive)
7 | C1=C2/CC[C@H](Sc3ccccc3)[C@H]2C2(CCCCC/1)OCCO2 | 28.5 µM (inactive) | 26.7 µM (inactive) | 27.9 µM (inactive) | 22.3 µM (inactive) | 21.8 µM (inactive) | > 100 µM (inactive) | > 100 µM (inactive) | 51.8 µM (inactive) | 32.1 µM (inactive) | 36.9 µM (inactive) | 27 µM (inactive) | 82.8 µM (inactive) | 54.7 µM (inactive) | – | 24.5 µM (inactive) | 29.9 µM (inactive) | 17.9 µM (inactive)
8 | COc1ccc(CN2C(=O)C(Cc3cc(OC)c(OC)c(C)c3OC)NC(=O)/C2=C/c2cc(OC)c(OC)c(C)c2OC)cc1 (centres undefined) | 22.6 µM (inactive) | 32.1 µM (inactive) | 32.1 µM (inactive) | 23.6 µM (inactive) | 37.2 µM (inactive) | 27.5 µM (inactive) | 59.8 µM (inactive) | 37.1 µM (inactive) | 33 µM (inactive) | – | 23.4 µM (inactive) | 51.6 µM (inactive) | 53.2 µM (inactive) | 25.8 µM (inactive) | 27 µM (inactive) | 38.8 µM (inactive) | 18.5 µM (inactive)
9 | Cn1nc(-c2ccccc2)c(C(=O)/C=C/c2ccc(F)cc2)c(N2CCOCC2)c1=O | – | 22.5 µM (inactive) | 21.8 µM (inactive) | – | 16.7 µM (inactive) | 28.3 µM (inactive) | 15.8 µM (inactive) | 17.4 µM (inactive) | 16.8 µM (inactive) | 13.7 µM (inactive) | 12.9 µM (inactive) | 19.1 µM (inactive) | 20.3 µM (inactive) | 13.6 µM (inactive) | 17.7 µM (inactive) | – | 14.5 µM (inactive)
10 | COC(=O)C1=CC2C=CC(C1C(=O)OC)C1C(C(=O)OC)=C(C(=O)OC)C(C(=O)OC)=C(C(=O)OC)C21OC (centres undefined) | > 100 µM (inactive) | > 100 µM (inactive) | > 100 µM (inactive) | > 100 µM (inactive) | > 100 µM (inactive) | > 100 µM (inactive) | > 100 µM (inactive) | > 100 µM (inactive) | – | – | > 100 µM (inactive) | > 100 µM (inactive) | > 100 µM (inactive) | > 100 µM (inactive) | – | – | > 100 µM (inactive)
11 | CN1C(=O)CCC2[C@@H]3CC=C4C[C@@H](O)CC[C@]4(C)C3CC[C@@]21C (some centres undefined) | 82.4 µM (inactive) | 64.9 µM (inactive) | 83.6 µM (inactive) | > 100 µM (inactive) | > 100 µM (inactive) | – | > 100 µM (inactive) | 46.1 µM (inactive) | 21.3 µM (inactive) | – | 33.8 µM (inactive) | – | 96.2 µM (inactive) | 18.3 µM (inactive) | 36.1 µM (inactive) | 59.8 µM (inactive) | –
12 | Cc1c(C(=O)O)oc2ccc([N+](=O)[O-])cc12 | > 100 µM (inactive) | > 100 µM (inactive) | > 100 µM (inactive) | > 100 µM (inactive) | > 100 µM (inactive) | > 100 µM (inactive) | > 100 µM (inactive) | > 100 µM (inactive) | > 100 µM (inactive) | > 100 µM (inactive) | > 100 µM (inactive) | > 100 µM (inactive) | > 100 µM (inactive) | – | > 100 µM (inactive) | > 100 µM (inactive) | > 100 µM (inactive)
13 | CCOC(=O)C1=C(C)NC(=S)NC1c1ccccc1 (centres undefined) | > 100 µM (inactive) | > 100 µM (inactive) | > 100 µM (inactive) | > 100 µM (inactive) | > 39.3 µM (inactive) | > 100 µM (inactive) | > 100 µM (inactive) | > 100 µM (inactive) | 50 µM (inactive) | – | 35.9 µM (inactive) | > 100 µM (inactive) | > 100 µM (inactive) | > 66.2 µM (inactive) | > 45.1 µM (inactive) | > 100 µM (inactive) | > 63.8 µM (inactive)
